In patent US6313179A, “Treatment of hyperproliferative skin disorders with C18 to C20 aliphatic alcohols” (Avanir Pharmaceuticals, priority 1998, dated 2001):
“Also recorded” adds a separate entry of the source. Like-named read-outs stand apart in the source and are kept apart here.

What was measured:
[1] = system: Vero (normal African green monkey kidney; ATCC CCL 81) cells; experiment: Proliferation study, Vero cells (Example 3); format: cell-based; conditions: 3 mM
Description: The following experiment examined the effect of n-docosanol on cell proliferation and quantitation of n-[1-^14 C]docosanol binding to keloid, Vero (normal African green monkey kidney; ATCC CCL 81) and normal skin fibroblast (ATCC CRL 1900) cells.
(§1) Human keloid fibroblasts, normal control skin fibroblasts and Vero cells were obtained from ATCC. n-Docosanol (30 mM) was suspended in Pluronic F-68 (1.2 mM) as described previously (Katz et al., ibid). A vehicle control was prepared using the same procedure except for the omission of n-docosanol. Radiolabeled n-[1-^14 C] docosanol suspension was prepared as described by Katz et al. (ibid.). Cells were resuspended in 1.2×10^6 cells/ml in DMEM supplemented with 10% fetal calf serum, sodium pyruvate, L-glutamine and penicillin-streptomycin. Cell suspension (0.5 ml) was added to each 35 mm well containing 1.3 ml media, followed by addition of 0.2 ml radiolabeled n-docosanol suspension (final n-docosanol concentration=3 mM). After 24 hours at 37° C. in humidified 10% CO2, the suspension was removed, wells were washed extensively with saline and cells were solubilized for scintillation counting by incubation with 0.5 ml trypsin for 15 min at 37° C. Solubilized cells were counted in a Beckman LS6000 scintillation counter. Samples were corrected for nonspecific binding to plates by subtracting values obtained in control wells lacking cells. To determine cell number, duplicate plates were treated with non-radiolabeled n-docosanol or control suspension at the same concentration or were left untreated. The number of viable cells was determined by trypan blue staining.

Human keloid fibroblasts [2] = experiment: Proliferation study, keloid cells (Example 3); format: cell-based; conditions: 3 mM
Description: as §1

[3] = system: respiratory syncytial virus; conditions: suspended in a surfactant; cell culture assays; cited from earlier work
[4] = system: Human fetal lung cells (HFL; ATCC CCL 153); experiment: Comparison of n-docosanol effect between keloid and normal cells: human fetal lung cells (Example 2); format: cell-based; conditions: 15 mM; for activity at 15000 µM: Homo sapiens, compared to cells incubated with no addition, read-out: % control; for activity at 15000 µM / cells/well: Table 3
Description: (§2) Human keloid fibroblasts were obtained from the American Type Culture Collection (Rockville, Md.) (CRL 1762). n-Docosanol (300 mM) was suspended in the nonionic surfactant Pluronic F-68 (12 mM) as described previously (Katz et al., Proc. Natl. Acad. Sci. U.S.A., 88:10825-10829, 1991, hereby incorporated by reference). A vehicle control was prepared using the same procedure except n-docosanol was omitted. Keloid cells (2.7×10^4per well) were added to 16 mm wells containing DMEM supplemented with 10% fetal calf serum (FCS), sodium pyruvate, L-glutamine and penicillin/streptomycin. n-Docosanol (15 mM) or the corresponding Pluronic F-68 control (0.6 mM) was added (total volume=2.0 ml). Cells were harvested after incubation for 72 and 168 hours at 37° C. in a humidified 10% CO2 incubator. The number of viable cells was determined by trypan blue staining.
(§3) Human fetal lung cells (HFL; ATCC CCL 153) and keloid cells (5×10^4 cells/well) were separately added to 16 mm wells and treated as described in Example 1. The results are shown in Tables 2 (keloid cells) and 3 (human fetal lung cells).

herpes simplex virus = conditions: suspended in a surfactant; cell culture assays; cited from earlier work
keloid cells = experiment: Comparison of n-docosanol effect between keloid and normal cells: keloid cells (Example 2); format: cell-based, Human; conditions: 15 mM; for inhibition at 15000 µM / activity at 15000 µM: Homo sapiens; for inhibition at 15000 µM: read-out: inhibition of number of keloid cells per well; for activity at 15000 µM / cells/well: Table 2; for activity at 15000 µM: compared to cells incubated with no addition, read-out: % control
Description: as §2, §3

Human keloid fibroblasts [5] = experiment: Antiproliferative activity of n-docosanol in keloid cells (Example 1, viable cell count); format: cell-based; conditions: 15 mM; for inhibition of keloid cell growth in vitro (in words): cultured keloid / hypertrophic fibroblasts; for activity at 15000 µM / cells/well: Table 1; for activity at 15000 µM: compared to cells incubated with no addition, read-out: % control
Description: as §2

CCCCCCCCCCCCCCCCCCCCCCO [n-docosanol]
number of Vero cells (in words) ([1]; one day incubation): not decreased
activity at 3000 µM ([1]; Chlorocebus sabaeus, Table 4, Vero, 24 hours, compared to cells incubated with no addition, read-out: % ctrl): 151%
No. cells ([1]; Table 4, Vero, 24 hours): 5.9 × 10^5 cells
inhibition at 3000 µM (Human keloid fibroblasts [2]; Homo sapiens, Fibroblast, 24 h, one day incubation, read-out: reduction of number of keloid cells): 57%
activity at 3000 µM (Human keloid fibroblasts [2]; Homo sapiens, Fibroblast, Table 4, Keloid, 24 hours, compared to cells incubated with no addition, read-out: % ctrl): 43%
No. cells (Human keloid fibroblasts [2]; Table 4, Keloid, 24 hours): 1.6 × 10^5 cells
antiviral activity [3]: potent antiviral activity
number of human fetal lung cells (in words) ([4]; at both time intervals (72 and 168 hours)): significantly increased
activity at 15000 µM ([4]; 72 hours): 116%
activity at 15000 µM ([4]; 168 hours): 250%
cells/well ([4]; 72 hours): 5.8 × 10^4 cells/well
cells/well ([4]; 168 hours): 20 × 10^4 cells/well
antiviral activity (herpes simplex virus): potent antiviral activity
inhibition at 15000 µM (keloid cells; 72 hours): 36%
inhibition at 15000 µM (keloid cells; 168 hours): 85%
activity at 15000 µM (keloid cells; 72 hours): 64%
activity at 15000 µM (keloid cells; 168 hours): 15%
cells/well (keloid cells; 72 hours): 1.1 × 10^4 cells/well
cells/well (keloid cells; 168 hours): 0.4 × 10^4 cells/well
inhibition of keloid cell growth in vitro (in words) (Human keloid fibroblasts [5]): favored by low cell densities and longer incubation times and is concentration-dependent; also recorded: dramatic inhibition of keloid cell growth
inhibition of keloid cell growth in vitro (in words) (Human keloid fibroblasts [5]; listed as n-Docosanol): exhibits antiproliferative activity against cultured hypertrophic fibroblasts
inhibition at 15000 µM (Human keloid fibroblasts [5]; Homo sapiens, Fibroblast, 168 hours, compared to no addition, read-out: inhibition of cell growth): 76%
activity at 15000 µM (Human keloid fibroblasts [5]; Homo sapiens, Fibroblast, 72 hours): 103%
activity at 15000 µM (Human keloid fibroblasts [5]; Homo sapiens, Fibroblast, 168 hours): 24%
cells/well (Human keloid fibroblasts [5]; 72 hours): 3.3 × 10^4 cells/well
cells/well (Human keloid fibroblasts [5]; 168 hours): 1.0 × 10^4 cells/well
